In article PMC7822874, “Chemoprotective antimalarials identified through quantitative high-throughput screening of Plasmodium blood and liver stage parasites” (Scientific Reports, 2021):
Values joined by “and” are separate entries in the source; they are usually repeats but may differ in a detail not shown here. Identical values can stand only once.

Columns and labels:
in vitro = conditions: human, n = 1
[1] = tested on: P. falciparum Dd2 (clone B2) asexual blood stage parasites; experiment: P. falciparum Dd2 asexual blood stage SYBR Green-I 72 h proliferation assay (qHTS); type: cell-based, Plasmodium falciparum; conditions: Plasmodium falciparum, DD2, Dd2 parental; Hill fit, averaged from three independent replicates; top concentration 29 µM; read-out: Average AC50 (Log[M]), Dd2 (converted)
[2] = tested on: P. falciparum Dd2 Cytb F123L; experiment: SYBR Green ABS proliferation assay, NCGC00473217 selected clone G08; type: cell-based, Plasmodium falciparum; conditions: Plasmodium falciparum, DD2, […]; averaged from three independent replicates; top concentration 29 µM; read-out: Average AC50 (Log[M]), NCGC00473217 clone G08 (Cytb F123L) (converted)
How it was run: (§1)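 Drug-selected P. falciparum Dd2 clones carrying Cytb mutations, obtained by limiting-dilution cloning, grown in RBCs at 37 °C under 5% CO2/5% O2/90% N2. Growth read by SYBR Green-I fluorescence at 72 h and normalized to controls.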

[3] = tested on: P. falciparum Dd2 Cytb G131S; experiment: SYBR Green ABS proliferation assay, NCGC00374598 selected clone C11; type: cell-based, Plasmodium falciparum; conditions: Plasmodium falciparum, DD2, […]; averaged from three independent replicates; top concentration 29 µM; read-out: Average AC50 (Log[M]), NCGC00374598 clone C11 (Cytb G131S) (converted)
How it was run: as §1

[4] = tested on: P. falciparum Dd2 Cytb A122D; experiment: SYBR Green ABS proliferation assay, NCGC00473217 selected clone F12; type: cell-based, Plasmodium falciparum; conditions: Plasmodium falciparum, DD2, […]; averaged from three independent replicates; top concentration 29 µM; read-out: Average AC50 (Log[M]), NCGC00473217 clone F12 (Cytb A122D) (converted)
How it was run: as §1

[5] = tested on: P. falciparum Dd2 Cytb V259L; experiment: SYBR Green ABS proliferation assay, NCGC00473217 selected clone F06; type: cell-based, Plasmodium falciparum; conditions: Plasmodium falciparum, DD2, […]; averaged from three independent replicates; top concentration 29 µM; read-out: Average AC50 (Log[M]), NCGC00473217 clone F06 (Cytb V259L) (converted)
How it was run: as §1

[6] = tested on: T1, Plasmodium falciparum Dd2-attB-ScDHODH (transgenic line expressing yeast DHODH), asexual blood stages; experiment: organism not typed; parameters: replicate k of 3 (each line is one of three independent assays; the three lines of one compound and parasite line follow each other); conditions: 72 h, n = 1
T1 construct: Dd2-attB-ScDHODH, the transgenic line that expresses yeast DHODH
How it was run: (§2)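 Only some compounds were profiled here. Each was assayed three independent times against the Dd2-attB parent and its yeast-DHODH-overexpressing derivative.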

[7] = tested on: T2, Plasmodium falciparum Dd2-attB (parental line), asexual blood stages; experiment: microbe, parasite or virus in culture; parameters: replicate k of 3 (each line is one of three independent assays; the three lines of one compound and parasite line follow each other); conditions: 72 h; n = 1
T2 construct: Dd2-attB, the isogenic parental line
How it was run: as §2

COc1cc(OC)cc(C(=O)Oc2c(CN3CCOCC3)cc(Cl)c3cccnc23)c1 [MLS000770997-01]
CC50 at 48 h (in vitro; HepG2 cells): 12.2 µM

C=C1C(=O)O[C@@H]2C[C@@H](C)[C@@H]3C=CC(=O)[C@@]3(C)[C@@H](OC(=O)CC(=O)O[C@H]3[C@@H]4C(=C)C(=O)O[C@@H]4C[C@@H](C)[C@@H]4C=CC(=O)[C@]43C)[C@H]12 [MLS000728515-01]
CC50 at 48 h (in vitro; hepg2): 10.9 µM

CC1=CC(=CNNC(=O)c2n[nH]cc2Br)C(=O)C=C1 [MLS000555044-01]
CC50 at 48 h (in vitro; HepG2 cells): 19.3 µM

CC(=O)c1cccc(N[S+](=O)([O-])c2cc(-c3cnc(C4CC4)o3)ccc2C)c1 [NCGC00131168-01]
CC50 at 48 h (in vitro; HepG2 cells): 30.6 µM

Cc1cc(C)n(CCC(=O)N2CC(Oc3ccc(-c4nc(-c5ccccc5)no4)cc3)C2)n1 [NCGC00441169-01]
CC50 at 48 h (in vitro; HepG2 cells): 10.9 µM

CC(C)c1cc(C(=O)NC2CCN(c3ncccc3C#N)CC2)n(C)n1 [NCGC00431169-01]
CC50 at 48 h (in vitro; HepG2 cells): 19.3 µM

COc1ccc(Nc2nc(N3CCCCC3)c3ccccc3n2)cc1 [MLS000569818-01]
CC50 at 48 h (in vitro; HepG2 cells): 30.6 µM

COCCN1Cc2ccc(NCC(C)C)nc2C(C)(C(=O)Nc2cccc(F)c2)C1 (centres unmarked) [NCGC00414615-01]
CC50 at 48 h (in vitro; HepG2 cells): 35.3 µM

CCC(C)NC(=O)N1CC(Oc2ccc(-c3noc(C4CCOCC4)n3)cc2)C1 (centres unmarked) [NCGC00458059-01]
CC50 at 48 h (in vitro; hepg2): 12.2 µM

CCCN1C(CC(C)C)=N[S+](=O)([O-])c2cc(NC(=O)C3CCCC3)ccc21 [NCGC00521158-01]
AC50 [1]: 2.72e-06 M | AC50 [2]: 1.17e-05 M | AC50 [3]: 4.15e-06 M | AC50 [4]: 5.22e-06 M | AC50 [5]: 2.16e-06 M

CCCN1C(CC(C)C)=N[S+](=O)([O-])c2cc(NC(=O)c3ncccn3)ccc21 [NCGC00521149-01]
AC50 [1]: 1.12e-05 M | AC50 [2]: 1.42e-05 M | AC50 [3]: 1.59e-05 M | AC50 [4]: 1.04e-05 M | AC50 [5]: 1.19e-05 M

CCCN1C(CC(C)C)=N[S+](=O)([O-])c2cc(NC(=O)c3ccc(-c4ccccc4)s3)ccc21 [NCGC00521113-01]
AC50 [1]: 5.02e-06 M | AC50 [2]: 2.24e-06 M | AC50 [3]: 1.68e-06 M | AC50 [4]: 5.02e-06 M | AC50 [5]: 1.42e-06 M

CCCN1C(CC(C)C)=N[S+](=O)([O-])c2cc(NC(=O)c3ccco3)ccc21 [NCGC00473219-02]
AC50 [1]: 3.17e-06 M | Individual replicates / Log AC50 (M) [6]: -5.7486 Log AC50 (M) and -5.5986 Log AC50 (M) and -5.8986 Log AC50 (M) | AC50 [2]: 3.17e-06 M | AC50 [3]: 3.17e-06 M | Individual replicates / Log AC50 (M) [7]: -6.2986 Log AC50 (M) and -5.9986 Log AC50 (M) and -6.0986 Log AC50 (M) | AC50 [4]: 3.56e-06 M | AC50 [5]: 5.22e-06 M

CCCN1C(CC(C)C)=N[S+](=O)([O-])c2cc(NC(=O)c3cc4ccccc4s3)ccc21 [NCGC00521881-01]
AC50 [1]: 1.65e-05 M | AC50 [2]: 7.1e-06 M | AC50 [3]: 1.42e-05 M | AC50 [4]: 4.48e-06 M | AC50 [5]: 6.84e-06 M

CCCN1C(CC(C)C)=N[S+](=O)([O-])c2cc(NC(=O)c3ccccn3)ccc21 [NCGC00521133-01]
AC50 [1]: 9.29e-06 M | AC50 [2]: 1.04e-05 M | AC50 [3]: 1.04e-06 M | AC50 [4]: 1.89e-06 M | AC50 [5]: 7.67e-06 M

CCCN1C(CC(C)C)=N[S+](=O)([O-])c2cc(NC(=O)c3c(Cl)cnn3C)ccc21 [NCGC00521056-01]
AC50 [1]: 1.65e-05 M | AC50 [2]: 1.22e-05 M | AC50 [3]: 1.12e-05 M | AC50 [4]: 6.32e-06 M | AC50 [5]: 8.61e-06 M

CCCN1C(CC(C)C)=N[S+](=O)([O-])c2cc(NC(=O)c3ccno3)ccc21 [NCGC00521048-01]
AC50 [1]: 6.1e-06 M | AC50 [2]: 1.89e-07 M | AC50 [3]: 5.02e-06 M | AC50 [4]: 4.66e-06 M | AC50 [5]: 3.17e-06 M

CCCN1C(CC(C)C)=N[S+](=O)([O-])c2cc(NC(=O)c3ccccc3)ccc21 [NCGC00510420-02]
AC50 [1]: 1e-06 M | AC50 [2]: 2.12e-08 M | AC50 [3]: 4.23e-07 M | AC50 [4]: 1.06e-06 M | AC50 [5]: 1.12e-06 M

CCCN1C(CC(C)C)=N[S+](=O)([O-])c2cc(NC(=O)c3ncco3)ccc21 [NCGC00521053-01]
AC50 [1]: 1.08e-05 M | AC50 [2]: 1.42e-05 M | AC50 [3]: 1.12e-05 M | AC50 [4]: 7.96e-06 M | AC50 [5]: 9.66e-06 M

CCCN1C(CC(C)C)=N[S+](=O)([O-])c2cc(NC(=O)c3ccc(C)s3)ccc21 [NCGC00510977-01]
AC50 [1]: 8.61e-06 M | AC50 [2]: 8.93e-06 M | AC50 [3]: 8.93e-06 M | AC50 [4]: 7.96e-06 M | AC50 [5]: 1.04e-05 M

CCCN1C(CC(C)C)=N[S+](=O)([O-])c2cc(NC(=O)c3ccc(Cl)c(Cl)c3)ccc21 [NCGC00531756-01]
AC50 [1]: 2e-05 M | AC50 [2]: 1.42e-05 M | AC50 [3]: 5.97e-06 M | AC50 [4]: 8.93e-06 M | AC50 [5]: 7.38e-06 M

CCCN1C(CC(C)C)=N[S+](=O)([O-])c2cc(NC(=O)c3cc(C)on3)ccc21 [NCGC00521054-01]
AC50 [1]: 8.93e-06 M | AC50 [2]: 4.48e-06 M | AC50 [3]: 1.26e-05 M | AC50 [4]: 2e-06 M | AC50 [5]: 2e-06 M

CCCN1C(CC(C)C)=N[S+](=O)([O-])c2cc(NC(=O)c3cn(-c4ccccc4)cn3)ccc21 [NCGC00521102-01]
AC50 [1]: 7.67e-06 M | AC50 [2]: 3.56e-06 M | AC50 [3]: 2.62e-07 M | AC50 [4]: 3.56e-08 M | AC50 [5]: 2.99e-06 M

CCCN1C(CC(C)C)=N[S+](=O)([O-])c2cc(NC(=O)c3cnn4cccnc34)ccc21 [NCGC00521136-01]
AC50 [1]: 1.22e-05 M | AC50 [2]: 1.17e-05 M | AC50 [3]: 7.96e-06 M | AC50 [4]: 6.84e-06 M | AC50 [5]: 8.28e-06 M

CCCN1C(CC(C)C)=N[S+](=O)([O-])c2cc(NC(=O)c3ccc(C)o3)ccc21 [NCGC00510048-01]
AC50 [1]: 9.66e-06 M | Individual replicates / Log AC50 (M) [6]: -5.1486 Log AC50 (M) | AC50 ([6]; read-out: Individual replicates / Log AC50 (converted)): 7.1 µM | AC50 [2]: 6.58e-06 M | AC50 [3]: 7.38e-06 M | Individual replicates / Log AC50 (M) [7]: -5.5486 Log AC50 (M) and -5.3486 Log AC50 (M) and -5.1986 Log AC50 (M) | AC50 [4]: 7.96e-06 M | AC50 [5]: 7.38e-06 M

CCCN1C(CC(C)C)=N[S+](=O)([O-])c2cc(NC(=O)c3cccc(OC(F)(F)F)c3)ccc21 [NCGC00531537-01]
AC50 [1]: 1.12e-05 M | AC50 [2]: 7.96e-06 M | AC50 [3]: 1.12e-05 M | AC50 [4]: 1e-05 M | AC50 [5]: 3.99e-06 M

CCCN1C(CC(C)C)=N[S+](=O)([O-])c2cc(NC(=O)COc3ccccc3)ccc21 [NCGC00521094-01]
AC50 [1]: 7.67e-06 M | AC50 [2]: 6.1e-06 M | AC50 [3]: 8.28e-06 M | AC50 [4]: 1.36e-05 M | AC50 [5]: 6.84e-06 M

CCCN1C(CC(C)C)=N[S+](=O)([O-])c2cc(NC(=O)c3cc4cccnc4s3)ccc21 [NCGC00521132-01]
AC50 [1]: 6.7e-06 M | AC50 [2]: 8.93e-06 M | AC50 [3]: 2.82e-06 M | AC50 [4]: 2.99e-06 M | AC50 [5]: 2.99e-06 M

CC(C)CC1=N[S+](=O)([O-])c2cc(NC(=O)c3ccco3)ccc2N1C [NCGC00510958-01]
AC50 [1]: 5.32e-06 M | AC50 [2]: 7.96e-07 M | AC50 [3]: 2.82e-06 M | AC50 [4]: 5.02e-06 M | AC50 [5]: 1.26e-05 M

CCCN1C(CC(C)C)=N[S+](=O)([O-])c2cc(NC(=O)c3ccc4ccccc4n3)ccc21 [NCGC00521161-01]
AC50 [1]: 5.97e-06 M | AC50 [2]: 2.82e-06 M | AC50 [3]: 7.96e-07 M | AC50 [4]: 3.99e-06 M | AC50 [5]: 2.24e-06 M
